The supplement of paper PMC10307832

Legend:
Test in all cases: relative viability (nuclei count vs DMSO), 5 days (fraction); higher = more cells survive
Afatinib + Trametinib = compound: CN(C)C/C=C/C(=O)Nc1cc2c(Nc3ccc(F)c(Cl)c3)ncnc2cc1O[C@H]1CCOC1 [Afatinib] + CC(=O)Nc1cccc(-n2c(=O)n(C3CC3)c(=O)c3c(Nc4ccc(I)cc4F)n(C)c(=O)c(C)c32)c1 [Trametinib] (partner 0.02 µM)
Summary of the method: (§1)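 Values are medians from duplicate plates. Each reflects relative viability, defined as the nuclei count of treated wells over that of vehicle wells. Lung cancer cell lines in 1536-well plates were pin-tool dosed one day after seeding with one drug alone or with a fixed anchor-drug dose plus five library-drug doses (not always all listed) in √10 steps, then fixed, stained and imaged at 4× after 5 days.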

Afatinib + Bortezomib = compound: CN(C)C/C=C/C(=O)Nc1cc2c(Nc3ccc(F)c(Cl)c3)ncnc2cc1O[C@H]1CCOC1 [Afatinib] + CC(C)C[C@H](NC(=O)[C@H](Cc1ccccc1)NC(=O)c1cnccn1)B(O)O [Bortezomib] (partner 0.002 µM)
Summary of the method: as §1

Afatinib + Pictilisib = compound: CN(C)C/C=C/C(=O)Nc1cc2c(Nc3ccc(F)c(Cl)c3)ncnc2cc1O[C@H]1CCOC1 [Afatinib] + CS(=O)(=O)N1CCN(Cc2cc3nc(-c4cccc5[nH]ncc45)nc(N4CCOCC4)c3s2)CC1 [Pictilisib] (partner 1 µM)
Summary of the method: as §1

Afatinib + Olaparib = compound: CN(C)C/C=C/C(=O)Nc1cc2c(Nc3ccc(F)c(Cl)c3)ncnc2cc1O[C@H]1CCOC1 [Afatinib] + O=C(c1cc(Cc2n[nH]c(=O)c3ccccc23)ccc1F)N1CCN(C(=O)C2CC2)CC1 [Olaparib] (partner 8 µM)
Summary of the method: as §1

Cell Line | relative viability (Afatinib + Trametinib; first compound 0.005 µM) | relative viability (Afatinib + Trametinib; first compound 0.01581 µM) | relative viability (Afatinib + Trametinib; first compound 0.1581 µM) | relative viability (Afatinib + Trametinib; first compound 0.5 µM) | relative viability (Afatinib + Bortezomib; first compound 0.005 µM) | relative viability (Afatinib + Bortezomib; first compound 0.01581 µM) | relative viability (Afatinib + Bortezomib; first compound 0.05 µM) | relative viability (Afatinib + Bortezomib; first compound 0.1581 µM) | relative viability (Afatinib + Bortezomib; first compound 0.5 µM) | relative viability (Afatinib + Pictilisib; first compound 0.005 µM) | relative viability (Afatinib + Pictilisib; first compound 0.01581 µM) | relative viability (Afatinib + Pictilisib; first compound 0.05 µM) | relative viability (Afatinib + Pictilisib; first compound 0.1581 µM) | relative viability (Afatinib + Pictilisib; first compound 0.5 µM) | relative viability (Afatinib + Olaparib; first compound 0.005 µM) | relative viability (Afatinib + Olaparib; first compound 0.01581 µM) | relative viability (Afatinib + Olaparib; first compound 0.05 µM) | relative viability (Afatinib + Olaparib; first compound 0.1581 µM) | relative viability (Afatinib + Olaparib; first compound 0.5 µM) | relative viability (Afatinib + Trametinib; first compound 0.05 µM)
LCLC-97TM1 | 0.17 | 0.215 | 0.153 | 0.171 | 0.733 | 0.646 | 0.648 | 0.463 | 0.619 | 0.27 | 0.182 | 0.182 | 0.144 | 0.15 | 0.424 | 0.351 | 0.348 | 0.273 | 0.397 | 
LCLC-103H | 0.602 | 0.698 | 0.634 | 0.697 | 1.01 | 1.09 | 1.05 | 0.929 | 1.12 | 0.621 | 0.572 | 0.642 | 0.62 | 0.482 | 0.743 | 0.744 | 0.764 | 0.682 | 0.773 | 0.736
LOU-NH91 | 0.718 | 0.683 | 0.671 | 0.727 | 0.465 | 0.416 | 0.48 | 0.519 | 0.502 | 0.492 | 0.49 | 0.541 | 0.498 | 0.501 | 0.701 | 0.704 | 0.701 | 0.687 | 0.742 | 0.718
LU99A | 0.635 | 0.569 | 0.509 | 0.552 | 1.19 | 1.07 | 1.08 | 1.08 | 1.02 | 0.345 | 0.395 | 0.308 | 0.349 | 0.295 | 0.253 | 0.266 | 0.249 | 0.248 | 0.264 | 0.589
LXF-289 | 0.702 | 0.716 | 0.613 | 0.647 | 1.04 | 0.906 | 0.947 | 0.905 | 0.936 | 0.829 | 0.701 | 0.695 | 0.706 | 0.777 | 1.12 | 1.06 | 1.09 | 1.04 | 1.03 | 0.616
NCI-H23 | 0.358 | 0.323 | 0.331 | 0.345 | 0.951 | 0.948 | 0.995 | 0.901 | 0.904 | 0.543 | 0.52 | 0.501 | 0.424 | 0.398 | 0.331 | 0.303 | 0.37 | 0.291 | 0.333 | 0.359
NCI-H322M | 0.492 | 0.463 | 0.43 | 0.442 | 0.721 | 1.03 | 0.663 | 0.563 | 0.512 | 0.441 | 0.396 | 0.351 | 0.327 | 0.279 | 0.743 | 0.573 | 0.559 | 0.559 | 0.531 | 0.458
NCI-H441 | 0.536 | 0.347 | 0.325 | 0.384 | 0.59 | 0.642 | 0.864 | 0.632 | 0.313 | 0.431 | 0.504 | 0.436 | 0.481 | 0.31 | 0.491 | 0.521 | 0.649 | 0.441 | 0.512 | 0.396
NCI-H460 | 0.161 | 0.139 | 0.133 | 0.136 | 1.34 | 1.1 | 1.09 | 1.1 | 0.997 | 0.371 | 0.39 | 0.339 | 0.35 | 0.343 | 0.373 | 0.407 | 0.439 | 0.458 | 0.491 | 0.187
NCI-H520 | 0.892 | 0.633 | 0.734 | 0.545 | 0.712 | 0.634 | 0.748 | 0.579 | 0.614 | 0.353 | 0.304 | 0.208 | 0.232 | 0.233 | 0.313 | 0.32 | 0.329 | 0.365 | 0.368 | 0.725
NCI-H596 | 0.783 | 0.725 | 0.782 | 0.797 | 1.15 | 1.18 | 1.11 | 0.766 | 1.01 | 0.35 | 0.394 | 0.4 | 0.384 | 0.415 | 0.706 | 0.707 | 0.697 | 0.58 | 0.685 | 0.834
NCI-H647 | 0.554 | 0.465 | 0.468 | 0.438 | 0.921 | 0.808 | 1.08 | 1.11 | 1 | 0.407 |  | 0.457 | 0.459 | 0.453 | 0.559 | 0.563 | 0.526 | 0.414 | 0.552 | 0.451
NCI-H650 | 0.947 | 0.983 | 0.969 | 1.01 | 1.07 | 0.802 | 0.957 | 0.949 | 0.597 | 0.889 | 0.793 | 1 | 1.09 | 0.924 | 0.339 | 0.429 | 0.441 | 0.407 | 0.399 | 0.991
NCI-H661 | 0.52 | 0.415 | 0.367 | 0.369 | 0.877 | 0.751 | 0.662 | 0.444 | 0.415 | 0.386 | 0.301 | 0.318 | 0.313 | 0.249 | 0.811 | 0.732 | 0.638 | 0.589 | 0.637 | 0.457
NCI-H727 | 0.391 | 0.359 | 0.299 | 0.34 | 0.85 | 0.732 | 0.825 | 0.863 | 0.804 | 0.315 | 0.401 | 0.306 | 0.279 | 0.281 | 0.827 | 0.824 | 0.606 | 0.572 | 0.815 | 0.393
